Laboratory results taken from publication PMC11870743, “Endothelial OX40 activation facilitates tumor cell escape from T cell surveillance through S1P/YAP-mediated angiogenesis” (The Journal of Clinical Investigation, 2025).
pKd: −log10 of the molar value.

Biological target: T1, YAP (Yes 1–associated protein), purified (Homo sapiens, UniProt P46937)
T1 construct: gene YAP1; purified YAP protein
Assay: microscale thermophoresis
Format: binding
Conditions: read-out: dissociation constant

T1 sequence (P46937 whole entry): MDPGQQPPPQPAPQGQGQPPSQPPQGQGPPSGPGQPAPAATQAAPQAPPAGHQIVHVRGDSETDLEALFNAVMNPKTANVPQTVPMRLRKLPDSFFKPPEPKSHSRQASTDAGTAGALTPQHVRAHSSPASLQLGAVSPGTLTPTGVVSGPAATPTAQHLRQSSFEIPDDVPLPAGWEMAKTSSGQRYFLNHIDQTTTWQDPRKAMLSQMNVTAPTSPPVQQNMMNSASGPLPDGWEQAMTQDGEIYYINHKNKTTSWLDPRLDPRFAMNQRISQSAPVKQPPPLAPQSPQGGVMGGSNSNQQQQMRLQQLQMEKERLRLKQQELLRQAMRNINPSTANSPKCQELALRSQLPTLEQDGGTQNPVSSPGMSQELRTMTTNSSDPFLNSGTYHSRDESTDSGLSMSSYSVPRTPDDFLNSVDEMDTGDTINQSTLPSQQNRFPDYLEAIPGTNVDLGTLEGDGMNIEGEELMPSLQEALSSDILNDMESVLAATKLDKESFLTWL

- pKd: 4.89
SMILES: CCCCCCCCCCCCC/C=C/[C@@H](O)[C@@H](N)COP(=O)(O)O [sphingosine 1-phosphate]
